Measured values taken from patent US4461899A, “Fluorenecarboxylic acid derivatives” (Diamond Shamrock Chemicals Company, priority 1982, dated 1984).
Entries after “also recorded” stand apart in the source; their conditions may differ. Where a name gives a salt, the structure may show the parent alone.

Key:
Assay type in all cases: in vivo
[1] = system: field grown tomato plants; test: Overall yield and fruit size of field grown tomatoes; conditions: for tomato yield / fruit size, in words: 10, 50 and 500 ppm, Example 1 decrease at 500 ppm; for Fruit Size, Green (% of Control): control 104.0 g; for Fruit Size, Red (% of Control): control 105.5 g
From the text: This example illustrates the effects of compounds of this invention on overall yield of tomatoes. For the test, field grown tomato plants, when in the early flowering stage, were foliage sprayed with the particular compounds of the invention designated below, and with the commercial product CF-125 (Maintain), at rates of 10, 50 and 500 ppm. These rates correspond to applications of 3.69 g, 18.54 g and 185.4 g/hectare, respectively. Each treatment consisted of five plants; the experimental design was a complete randomized block with three replications. A block of untreated plants was included as the control. The fruit was harvested by hand and separated into […] ripe fruit and marketable green fruit.

[2] = system: field grown tomato plants; test: Fruit set and phytotoxicity in field grown tomato plants; conditions: for Increase Over Control (%) of fruit set: 24 days; for Fruit Set Per Plant (After 24 days) / Phytotoxicity: 24 days after treatment; for Increase (%) of fruit set: initial to 24 days
From the text: To determine fruit set effects by compounds of this invention, field grown tomato plants were foliage sprayed with the cis-2,5-dimethylpyrrolidine salt of […], 9-cis-2,5-dimethyl-1-pyrrolidinyl-2-chlorofluorene-9-carboxylic acid, methyl ester, and the commercial plant growth regulant, MAINTAIN CF-125 (methyl-2-chloro-9hydroxyfluorene-9-carboxylate, manufactured by U.S. Borax and Chemical Corp.). Rates of application employed were 5, 25, and 100 ppm when the tomato plants were in the late blooming to early fruit setting stage. Untreated plants were included in the test as controls. Five plants were sprayed for each chemical treatment. The number of fruit set and the degree of phytotoxicity to the plants were determined 24 days after treatment.

[3] = system: "Walter" variety tomato plants; test: Yield of "Walter" variety tomatoes, weekly harvest of mature red fruit; conditions: for Total Fruit / Total Fruit, % of Control: weeks 1-6
From the text: Compounds of this invention were further tested as tomato yield enhancers as follows:
"Walter" variety tomato plants, in the early flowering stage, were foliage sprayed at a rate of 68.8 liters/hectare with compounds of this invention, and with the commercial product, CF-125. Each plot consisted of 20 plants; the experimental design was a completed randomized block with three replications. A plot of untreated plants was included as a control. Marketable, mature red tomatoes were harvested weekly, beginning 5 weeks after treatment.

[4] = system: soybean plants; test: Soybean yield after foliar spray at early flowering stage; conditions: for Yield Improvement %: vs control
From the text: Two 50 cm rows of soybean plants at the early flowering stage were sprayed with 100 ppm or 500 ppm of the cis-2,5-dimethylpyrrolidine salt of 9-fluorenecarboxylic acid, using a spray volume of about 375 liters/hectare (40 gallons/acre). For comparison, other rows were sprayed with like concentrations of two known compounds as designated below. Also 2 untreated rows were maintained to serve as a control: each of the plots was weeded by hand as needed. At maturity, each plot was harvested and the yield was determined.

SMILES: COC(=O)C1(N2[C@H](C)CC[C@@H]2C)c2ccccc2-c2ccc(Cl)cc21 (stereo partly drawn) [Example 8, 9-cis-2,5-dimethyl-1-pyrrolidinyl-2-chlorofluorene-9-carboxylic acid, methyl ester]
- tomato yield / fruit size, in words [1]: became inhibitory above the 50 ppm rate
- Fruit Yield, Green (% of Control) ([1]; 10 ppm): 64 % of Control
- Fruit Yield, Red (% of Control) ([1]; 10 ppm): 161 % of Control
- Total Yield (% of Control) ([1]; 10 ppm): 97 % of Control
- yield of red fruit over the control yield ([1]; 10 ppm): 61%
- Fruit Size, Green (% of Control) ([1]; 10 ppm): 93 % of Control
- Fruit Size, Red (% of Control) ([1]; 10 ppm): 82 % of Control
- Fruit Yield, Green (% of Control) ([1]; 50 ppm): 26 % of Control
- Fruit Yield, Red (% of Control) ([1]; 50 ppm): 93 % of Control
- Total Yield (% of Control) ([1]; 50 ppm): 49 % of Control
- Fruit Size, Green (% of Control) ([1]; 50 ppm): 46 % of Control
- Fruit Size, Red (% of Control) ([1]; 50 ppm): 95 % of Control
- Fruit Yield, Green (% of Control) ([1]; 500 ppm): 0 % of Control
- Fruit Yield, Red (% of Control) ([1]; 500 ppm): 76 % of Control
- Total Yield (% of Control) ([1]; 500 ppm): 26 % of Control
- Fruit Size, Green (% of Control) ([1]; 500 ppm): 0 % of Control
- Fruit Size, Red (% of Control) ([1]; 500 ppm): 67 % of Control
- Increase Over Control (%) of fruit set ([2]; 5 ppm): 36%
- Fruit Set Per Plant (After 24 days) ([2]; 5 ppm): 19.6
- Phytotoxicity ([2]; 5 ppm): 0
- Fruit Set Per Plant (Initial) ([2]; 5 ppm): 9.4
- Increase (%) of fruit set ([2]; 5 ppm): 109%
- Increase Over Control (%) of fruit set ([2]; 25 ppm): 9%
- Fruit Set Per Plant (After 24 days) ([2]; 25 ppm): 18.6
- Phytotoxicity ([2]; 25 ppm): 0
- Fruit Set Per Plant (Initial) ([2]; 25 ppm): 10.2
- Increase (%) of fruit set ([2]; 25 ppm): 82%
- Increase Over Control (%) of fruit set ([2]; 100 ppm): -23%
- Fruit Set Per Plant (After 24 days) ([2]; 100 ppm): 15.6
- Fruit Set Per Plant (Initial) ([2]; 100 ppm): 10.4
- Increase (%) of fruit set ([2]; 100 ppm): 50%
- increased tomato yields above the yield of control plots ([3]; 5-10 ppm): 39-80%
- Fruit Yield (kg/plot) ([3]; 5 ppm): 32.8 kg/plot
- Total Yield Wt. % of Control ([3]; 5 ppm): 139.0 % of Control
- Fruit harvested, Harvest Time (Week) 1 ([3]; 5 ppm): 11
- Fruit harvested, Harvest Time (Week) 2 ([3]; 5 ppm): 109
- Fruit harvested, Harvest Time (Week) 3 ([3]; 5 ppm): 103
- Fruit harvested, Harvest Time (Week) 4 ([3]; 5 ppm): 168
- Fruit harvested, Harvest Time (Week) 5 ([3]; 5 ppm): 208
- Fruit harvested, Harvest Time (Week) 6 ([3]; 5 ppm): 286
- Total Fruit ([3]; 5 ppm): 885
- Total Fruit, % of Control ([3]; 5 ppm): 154 % of Control
- Fruit Yield (kg/plot) ([3]; 10 ppm): 42.6 kg/plot
- Total Yield Wt. % of Control ([3]; 10 ppm): 180.5 % of Control
- Fruit harvested, Harvest Time (Week) 1 ([3]; 10 ppm): 13
- Fruit harvested, Harvest Time (Week) 2 ([3]; 10 ppm): 123
- Fruit harvested, Harvest Time (Week) 3 ([3]; 10 ppm): 126
- Fruit harvested, Harvest Time (Week) 4 ([3]; 10 ppm): 240
- Fruit harvested, Harvest Time (Week) 5 ([3]; 10 ppm): 306
- Fruit harvested, Harvest Time (Week) 6 ([3]; 10 ppm): 296
- Total Fruit ([3]; 10 ppm): 1104
- Total Fruit, % of Control ([3]; 10 ppm): 192 % of Control
- Fruit Yield (kg/plot) ([3]; 50 ppm): 15.4 kg/plot
- Total Yield Wt. % of Control ([3]; 50 ppm): 65.3 % of Control
- Fruit harvested, Harvest Time (Week) 1 ([3]; 50 ppm): 34
- Fruit harvested, Harvest Time (Week) 2 ([3]; 50 ppm): 150
- Fruit harvested, Harvest Time (Week) 3 ([3]; 50 ppm): 81
- Fruit harvested, Harvest Time (Week) 4 ([3]; 50 ppm): 25
- Fruit harvested, Harvest Time (Week) 5 ([3]; 50 ppm): 9
- Fruit harvested, Harvest Time (Week) 6 ([3]; 50 ppm): 100
- Total Fruit ([3]; 50 ppm): 399
- Total Fruit, % of Control ([3]; 50 ppm): 69 % of Control

SMILES: O=C(O)c1cccc2c1Cc1ccccc1-2 [1-fluorenecarboxylic acid]
- Yield (Kilograms) × 10^2 ([4]; 100 ppm): 17.16 Kilograms × 10^2
- Yield Improvement % ([4]; 100 ppm): -2.7%
- Yield (Kilograms) × 10^2 ([4]; 500 ppm): 17.34 Kilograms × 10^2
- Yield Improvement % ([4]; 500 ppm): -1.5%

SMILES: C[C@@H]1CC[C@H](C)N1.O=C(O)C1c2ccccc2-c2ccccc21 [Example 15, Cis-2,5-dimethylpyrrolidine salt of 9-fluorenecarboxylic acid]
- soybean yield, in words ([4]; particularly at 500 ppm, over untreated control and fluorenecarboxylic acids): significantly enhances soybean yield over the untreated control plot and over plots treated with known morphactins

SMILES: O=C(O)c1cccc2c1Cc1ccccc1-2 [Example 3, 2,6-Dimethyl piperidine salt of fluorene-1-carboxylic acid]
- tomato yield / fruit size, in words [1]: increased the yield of red fruit at all rates of application; also recorded: increasing the size of the fruit
- Fruit Yield, Green (% of Control) ([1]; 10 ppm): 45 % of Control
- Fruit Yield, Red (% of Control) ([1]; 10 ppm): 119 % of Control
- Total Yield (% of Control) ([1]; 10 ppm): 70 % of Control
- Fruit Size, Green (% of Control) ([1]; 10 ppm): 137 % of Control
- Fruit Size, Red (% of Control) ([1]; 10 ppm): 161 % of Control
- Fruit Yield, Green (% of Control) ([1]; 50 ppm): 69 % of Control
- Fruit Yield, Red (% of Control) ([1]; 50 ppm): 122 % of Control
- Total Yield (% of Control) ([1]; 50 ppm): 128 % of Control
- Fruit Size, Green (% of Control) ([1]; 50 ppm): 101 % of Control
- Fruit Size, Red (% of Control) ([1]; 50 ppm): 165 % of Control
- Fruit Yield, Green (% of Control) ([1]; 500 ppm): 86 % of Control
- Fruit Yield, Red (% of Control) ([1]; 500 ppm): 127 % of Control
- Total Yield (% of Control) ([1]; 500 ppm): 59 % of Control
- Fruit Size, Green (% of Control) ([1]; 500 ppm): 83 % of Control
- Fruit Size, Red (% of Control) ([1]; 500 ppm): 127 % of Control

SMILES: O=C(O)C1c2ccccc2-c2ccccc21 [9-fluorenecarboxylic acid]
- Yield (Kilograms) × 10^2 ([4]; 100 ppm): 18.93 Kilograms × 10^2
- Yield Improvement % ([4]; 100 ppm): 7.3%
- Yield (Kilograms) × 10^2 ([4]; 500 ppm): 19.02 Kilograms × 10^2
- Yield Improvement % ([4]; 500 ppm): 7.5%
